# Test results from US11759462B2, “Spirocyclic compounds as tryptophan hydroxylase inhibitors” (priority 2013, dated 2023).
# Like-named read-outs stand apart in the source and are kept apart here.
# Biological target: T1, Recombinant human TPH1 (MBP tagged) (Homo sapiens, UniProt P17752)
# T1 construct: cloning full length human TPH1 cDNA in to a bacterial pMAL-c5E expression vector; made in house; host or cells: E. coli BL21 (DE3)
# T1 sequence (P17752 1-444): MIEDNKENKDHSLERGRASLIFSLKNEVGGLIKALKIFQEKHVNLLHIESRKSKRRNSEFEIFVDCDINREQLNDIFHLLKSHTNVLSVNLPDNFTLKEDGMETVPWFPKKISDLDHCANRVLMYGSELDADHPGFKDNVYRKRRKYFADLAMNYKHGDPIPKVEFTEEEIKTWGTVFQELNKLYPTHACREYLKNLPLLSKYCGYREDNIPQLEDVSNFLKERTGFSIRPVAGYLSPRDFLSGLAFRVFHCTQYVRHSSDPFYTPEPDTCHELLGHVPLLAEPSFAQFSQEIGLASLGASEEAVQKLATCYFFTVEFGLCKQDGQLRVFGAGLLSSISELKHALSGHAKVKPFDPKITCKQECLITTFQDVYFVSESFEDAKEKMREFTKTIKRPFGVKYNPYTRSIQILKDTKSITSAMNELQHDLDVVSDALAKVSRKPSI
# Test: TPH1 in vitro inhibition assay (kinetic fluorescence)
# Format: biochemical
# Description: Recombinant human TPH1 (rTPH1 GenBank™ accession no. NP_004179) was expressed by cloning full length human TPH1 cDNA in to a bacterial pMAL-c5E expression vector to produce maltose-binding protein (MBP) TPH1 fusion proteins. E. coli BL21 (DE3) containing pMAL-c5E-TPH1 was used for protein generation and the recombinant protein was purified utilizing standard column chromatography techniques. The MBP tagged TPH1 (MBP-TPH1) was used directly to screen compounds as described below. Recombinant human TPH2 (rTPH2 GenBank™ accession no. 173353), PheOH (rPheOH GenBank™ accession no. K03020) and TH (rTH GenBank™ accession no. L20679) with an MBP tag were produced similarly.
# TPH1 activities were measured in an assay containing 200 mM ammonium sulfate, 7 mM DTT, 50 μg/mL catalase, 25 μM ammonium iron sulfate, 50 mM MES, pH 7.1. Test compounds were diluted in 100% DMSO and added to the assay plate in 1 μL aliquots at 100× final concentration. Fifty microliters of assay buffer containing 30 nM TPH1 enzyme (MBP tagged) were added to the plate wells containing the test compound by the use of an Eppendorf repeater pipette. The reaction was initiated by the addition of 50 μL of assay buffer containing 60 μM tryptophan and 72 μM 6-6-methyltetra-hydropterin (2× final concentration) by the use of a Multidrop (LabSystems). Final reaction conditions were 15 nM TPH1 enzyme, 30 μM tryptophan, 36 μM 6-methyltetra-hydropterin, 200 mM ammonium sulfate, 7 mM DTT, […], 25 μM ferrous ammonium sulfate, 50 mM MES, pH 7.1, with atmospheric oxygen at room temperature. The plate was immediately placed onto an M5 plate reader (Molecular Devices) for kinetic fluorescence measurement using an excitation setting of 300 nm and an emission setting of 335 nm. Fluorescence reads are recorded in kinetic mode for 300 seconds (5 minutes).
# Kinetic assay data for compounds at specific concentrations was translated into slopes using the Softmax Pro software on a Spectramax reader, and compound inhibition slopes were compared with wells containing enzyme, substrate and cofactor in the absence of inhibitor (100%), and wells containing substrate and cofactor in the absence of enzyme (0%). DMSO concentration in the assay was 1%. […] IC50's were determined using Graphpad Prism.
# [1] = read-out: TPH1 Range (TPH1 inhibition IC50)
# [2] = TPH1 Range (TPH1 inhibition IC50)
Compound,IC50 [1],IC50 [2]
"Nc1nc(O[C@H](c2ccc(-c3ccc4c(c3)COC4=O)cc2)C(F)(F)F)cc(N2CCC3(CC2)CN[C@H](C(=O)O)C3)n1 [Example 55s, (S)-8-(2-amino-6-((R)-2,2,2-trifluoro-1-(4-(1-oxo-1,3-dihydroisobenzofuran-5-yl)phenyl)ethoxy)pyrimidin-4-yl)-2,8-diazaspiro[4.5]decane-3-carboxylic acid]",< 50 nM,–
"Cc1ccn(-c2ccc(-c3ccc(F)c(F)c3)cc2[C@@H](Oc2cc(N3CCC4(CC3)CN[C@H](C(=O)O)C4)nc(N)n2)C(F)(F)F)n1 [Example 19o, (S)-8-(2-amino-6-((R)-1-(3′,4′-difluoro-4-(3-methyl-1H-pyrazol-1-yl)-[1,1′-biphenyl]-3-yl)-2,2,2-trifluoroethoxy)pyrimidin-4-yl)-2,8-diazaspiro[4.5] decane-3-carboxylic acid]",< 50 nM,–
"Nc1nc(O[C@H](c2ccc(-c3ccc(O)cc3)cc2)C(F)(F)F)cc(N2CCC3(CC2)CN[C@H](C(=O)O)C3)n1 [Example 55cb, (S)-8-(2-amino-6-((R)-2,2,2-trifluoro-1-(4′-hydroxy-[1,1′-biphenyl]-4-yl)ethoxy)pyrimidin-4-yl)-2,8-diazaspiro[4.5]decane-3-carboxylic acid]",50 to 300 nM,–
"Cc1ccn(-c2cc(-c3cc(C(F)(F)F)cc(C(F)(F)F)c3)ccc2[C@@H](Oc2cc(N3CCC4(CC3)CN[C@H](C(=O)O)C4)nc(N)n2)C(F)(F)F)n1 [Example 1bf, (S)-8-(2-amino-6-((R)-2,2,2-trifluoro-1-(3-(3-methyl-1H-pyrazol-1-yl)-3′,5′-bis(trifluoromethyl)-[1,1′-biphenyl]-4-yl)ethoxy)pyrimidin-4-yl)-2,8-diazaspiro[4.5]decane-3-carboxylic acid]",50 to 300 nM,–
"Cc1ccn(-c2cc(C(=O)OC3CCCC3)ccc2[C@@H](Oc2cc(N3CCC4(CC3)CN[C@H](C(=O)O)C4)nc(N)n2)C(F)(F)F)n1 [Example 18f, (S)-8-(2-amino-6-((R)-1-(4-((cyclopentyloxy)carbonyl)-2-(3-methyl-1H-pyrazol-1-yl)phenyl)-2,2,2-trifluoroethoxy)pyrimidin-4-yl)-2,8-diazaspiro[4.5]decane-3-carboxylic acid]",< 50 nM,–
"Cc1ccc(-c2ccc([C@@H](Oc3cc(N4CCC5(CC4)CN[C@H](C(=O)O)C5)nc(N)n3)C(F)(F)F)cc2)cc1C [Example 55ch, (S)-8-(2-amino-6-((R)-1-(3′,4′-dimethyl-[1,1′-biphenyl]-4-yl)-2,2,2-trifluoroethoxy)pyrimidin-4-yl)-2,8-diazaspiro[4.5]decane-3-carboxylic acid]",50 to 300 nM,–
"Cc1ccn(-c2cc(-c3ccc(OC(F)(F)F)cc3)ccc2[C@@H](Oc2cc(N3CCC4(CC3)CN[C@H](C(=O)O)C4)nc(C)n2)C(F)(F)F)n1 [Example 29t, (S)-8-(2-methyl-6-((R)-2,2,2-trifluoro-1-(3-(3-methyl-1H-pyrazol-1-yl)-4′-(trifluoromethoxy)-[1,1′-biphenyl]-4-yl)ethoxy)pyrimidin-4-yl)-2,8-diazaspiro[4.5]decane-3-carboxylic acid]",50 to 300 nM,–
"Nc1nc(O[C@H](c2ccccc2-c2ccccc2)C(F)(F)F)cc(N2CCC3(CC2)CN[C@H](C(=O)O)C3)n1 [Example 36g, (S)-8-(6-((R)-1-([1,1′-biphenyl]-2-yl)-2,2,2-trifluoroethoxy)-2-aminopyrimidin-4-yl)-2,8-diazaspiro[4.5]decane-3-carboxylic acid]",< 50 nM,–
"CCOc1cccc(-c2ccc([C@@H](Oc3cc(N4CCC5(CC4)CN[C@H](C(=O)O)C5)nc(N)n3)C(F)(F)F)c(-n3ccc(C)n3)c2)c1 [Example 1ap, (S)-8-(2-amino-6-((R)-1-(3′-ethoxy-3-(3-methyl-1H-pyrazol-1-yl)-[1,1′-biphenyl]-4-yl)-2,2,2-trifluoroethoxy)pyrimidin-4-yl)-2,8-diazaspiro[4.5]decane-3-carboxylic acid]",< 50 nM,–
"Nc1nc(O[C@H](c2ccc(-c3ccc4c(c3)OC(=O)CC4)cc2)C(F)(F)F)cc(N2CCC3(CC2)CN[C@H](C(=O)O)C3)n1 [Example 55db, (S)-8-(2-amino-6-((R)-2,2,2-trifluoro-1-(4-(2-oxochroman-7-yl)phenyl)ethoxy)pyrimidin-4-yl)-2,8-diazaspiro[4.5]decane-3-carboxylic acid]",300 to 3000 nM,–

# Second part, the compound after the results:
IC50 [1],IC50 [2],Compound
< 50 nM,–,"COc1ccc(-c2ccc([C@@H](Oc3cc(N4CCC5(CC4)CN[C@H](C(=O)O)C5)nc(C)n3)C(F)(F)F)c(-n3ccc(C)n3)c2)cc1F [Example 29l, (S)-8-(2-methyl-6-((R)-2,2,2-trifluoro-1-(3′-fluoro-4′-methoxy-3-(3-methyl-1H-pyrazol-1-yl)-[1,1′-biphenyl]-4-yl)ethoxy)pyrimidin-4-yl)-2,8-diazaspiro[4.5]decane-3-carboxylic acid]"
< 50 nM,–,"CS(=O)(=O)c1cccc(-c2cc(-c3ccc4ncccc4c3)ccc2[C@@H](Oc2cc(N3CCC4(CC3)CN[C@H](C(=O)O)C4)nc(N)n2)C(F)(F)F)c1 [Example 52b, (S)-8-(2-amino-6-((R)-2,2,2-trifluoro-1-(3′-(methylsulfonyl)-5-(quinolin-6-yl)-[1,1′-biphenyl]-2-yl)ethoxy)pyrimidin-4-yl)-2,8-diazaspiro[4.5]decane-3-carboxylic acid]"
< 50 nM,–,"(S)-8-(2-amino-6-((R)-1-(4-bromo-2-(3-methyl-H-pyrazol-1-yl)phenyl)-2,2,2-trifluoroethoxy)pyrimidin-4-yl)-2,8-diazaspiro[4.5]decane-3-carboxylic acid [Example 10o]"
–,< 50 nM,"Cc1cccc(-c2cc(Cl)ccc2[C@@H](Oc2cc(N3CCC4(CC3)CN[C@H](C(=O)O)C4)nc(N)n2)C(F)(F)F)c1 [Example 34b, (S)-8-(2-amino-6-((R)-1-(5-chloro-3′-methyl-[1,1′-biphenyl]-2-yl)-2,2,2-trifluoroethoxy)pyrimidin-4-yl)-2,8-diazaspiro[4.5]decane-3-carboxylic acid]"
–,50 to 300 nM,"Cc1cc(-c2cc(Cl)ccc2[C@@H](Oc2cc(N3CCC4(CC3)CN[C@H](C(=O)O)C4)nc(N)n2)C(F)(F)F)ccc1Cl [Example 34at, (S)-8-(2-amino-6-((R)-1-(4′,5-dichloro-3′-methyl-[1,1′-biphenyl]-2-yl)-2,2,2-trifluoroethoxy)pyrimidin-4-yl)-2,8-diazaspiro[4.5]decane-3-carboxylic acid]"
50 to 300 nM,–,"COc1ccccc1-c1ccc([C@@H](Oc2cc(N3CCC4(CC3)CN[C@H](C(=O)O)C4)nc(N)n2)C(F)(F)F)cc1 [Example 55ar, (S)-8-(2-amino-6-((R)-2,2,2-trifluoro-1-(2′-methoxy-[1,1′-biphenyl]-4-yl)ethoxy)pyrimidin-4-yl)-2,8-diazaspiro[4.5]decane-3-carboxylic acid]"
< 50 nM,–,"Cc1ccc(-c2ccc([C@@H](Oc3cc(N4CCC5(CC4)CN[C@H](C(=O)O)C5)nc(N)n3)C(F)(F)F)c(-n3ccc(C)n3)c2)cc1 [Example 1ae, (S)-8-(2-amino-6-((R)-2,2,2-trifluoro-1-(4′-methyl-3-(3-methyl-1H-pyrazol-1-yl)-[1,1′-biphenyl]-4-yl)ethoxy)pyrimidin-4-yl)-2,8-diazaspiro[4.5]decane-3-carboxylic acid]"
